Structures can show the parent of a compound that is named as a salt. Where two headings read alike, the source gives them in different places.
Columns and labels:
Solubility of salt forms = type: physicochemical; details: for Final pH: final pH of the solubility test
[1] = Dynamic vapor sorption (DVS); type: physicochemical; details: for hygroscopicity classification according to DVS results / weight gain (DVS): from 0 to 80% RH
[2] = tested on: kinase domain of the T790M double mutant; details: cited from earlier work

C=CC(=O)Nc1cc(Nc2nccc(-c3cn(C)c4ccccc34)n2)c(OC)cc1OCCN(C)C [Compound 2, N-(2-(2-(Dimethylamino)ethoxy)-4-methoxy-5-((4-(1-methyl-1H-indol-3-yl)pyrimidin-2-yl)amino)phenyl)acrylamide methanesulfonate (1:1)]
Solubility (Solubility of salt forms): >53 mg/mL
Final pH (Solubility of salt forms): 4.9
hygroscopicity classification according to DVS results [1]: hygroscopic
weight gain (DVS) [1]: 14.44%
DVS Sorption ([1]; listed as 2 (Form 2A)): 0.91%

C=CC(=O)Nc1cc(Nc2nccc(-c3cn(C)c4ccccc34)n2)c(OC)cc1OCCN(C)C.Cc1ccc(S(=O)(=O)O)cc1 [Compound 5, N-(2-(2-(Dimethylamino)ethoxy)-4-methoxy-5-((4-(1-methyl-1H-indol-3-yl)pyrimidin-2-yl)amino)phenyl)acrylamide p-toluenesulfonate (1:1)]
Final pH (Solubility of salt forms): 5.8
Solubility (Solubility of salt forms; read-out: Solubility): 0.53 mg/mL
DVS Sorption [1]: 1.86%
hygroscopicity classification according to DVS results [1]: slightly hygroscopic
weight gain (DVS) [1]: 1.86%

C=CC(=O)Nc1cc(Nc2nccc(-c3cn(C)c4ccccc34)n2)c(OC)cc1OCCN(C)C [Compound 1, N-(2-(2-(Dimethylamino)ethoxy)-4-methoxy-5-((4-(1-methyl-1H-indol-3-yl)pyrimidin-2-yl)amino)phenyl)acrylamide]
inhibition of the kinase domain of the T790M double mutant [2]: effectively inhibits
Solubility (Solubility of salt forms): 0.05 mg/mL
Final pH (Solubility of salt forms): 6.2

C=CC(=O)Nc1cc(Nc2nccc(-c3cn(C)c4ccccc34)n2)c(OC)cc1OCCN(C)C.Cl [Compound 3, N-(2-(2-(Dimethylamino)ethoxy)-4-methoxy-5-((4-(1-methyl-1H-indol-3-yl)pyrimidin-2-yl)amino)phenyl)acrylamide hydrochloride (1:1)]
Final pH (Solubility of salt forms): 6.0
Solubility (Solubility of salt forms; read-out: Solubility): 0.81 mg/mL
DVS Sorption [1]: 0.76%
hygroscopicity classification according to DVS results [1]: slightly hygroscopic
weight gain (DVS) [1]: 0.76%

C=CC(=O)Nc1cc(Nc2nccc(-c3cn(C)c4ccccc34)n2)c(OC)cc1OCCN(C)C [3 (Form 2B), N-(2-(2-(Dimethylamino)ethoxy)-4-methoxy-5-((4-(1-methyl-1H-indol-3-yl)pyrimidin-2-yl)amino)phenyl)acrylamide methanesulfonate (1:1)]
DVS Sorption [1]: 14.44%

C=CC(=O)Nc1cc(Nc2nccc(-c3cn(C)c4ccccc34)n2)c(OC)cc1OCCN(C)C [Compound 6, N-(2-(2-(Dimethylamino)ethoxy)-4-methoxy-5-((4-(1-methyl-1H-indol-3-yl)pyrimidin-2-yl)amino)phenyl)acrylamide citrate (1:1)]
Solubility (Solubility of salt forms): 6.9 mg/mL
Final pH (Solubility of salt forms): 4.6

C=CC(=O)Nc1cc(Nc2nccc(-c3cn(C)c4ccccc34)n2)c(OC)cc1OCCN(C)C [Compound 4, N-(2-(2-(Dimethylamino)ethoxy)-4-methoxy-5-((4-(1-methyl-1H-indol-3-yl)pyrimidin-2-yl)amino)phenyl)acrylamide sulfate (1:1)]
Solubility (Solubility of salt forms): >79 mg/mL
Final pH (Solubility of salt forms): 2.4
DVS Sorption [1]: 10.60%
hygroscopicity classification according to DVS results [1]: hygroscopic
weight gain (DVS) [1]: 10.60%
